# Measurements reported in patent US20250073244A1, “CRYSTALLINE FORMS OF PENTAAZA MACROCYCLIC RING COMPLEX” (Galera Labs, LLC, priority 2023, published 2025).
# How the values were obtained:
# Assay type in all cases: physicochemical
# [1] = Differential scanning calorimetry (DSC); conditions: −30 to 250° C.
# Method: DSC was performed using a Mettler-Toledo DSC3+ differential scanning calorimeter. A tau lag adjustment is performed with indium, tin, and zinc. The temperature and enthalpy are adjusted with octane, phenyl salicylate, indium, tin and zinc. The adjustment is then verified with octane, phenyl salicylate, indium, tin, and zinc. The sample was placed into a hermetically sealed aluminum DSC pan, the weight was accurately recorded, and the sample was inserted into the DSC cell. A weighed aluminum pan configured as the sample pan was placed on the reference side of the cell. The pan lid was pierced prior to sample analysis. […]
# A cycling DSC experiment was conducted for as-received amorphous, in which the sample was analyzed from −25° C. to 200° C., then cooled to −25° C. and reheated to 250° C. at 10° C./min.
# [2] = Form E generation attempts via desolvation or heating
# From the text: These attempts were not successful in providing Form E as a pure crystalline phase. Mixtures primarily composed of Form E and other unidentified crystalline phase(s) were obtained (FIG. 42).
# Heat induced crystallization of amorphous GC4711 is described in Table 50.
# [3] = Approximate solubility of the starting material at 25° C. and 50° C.
# Method: About 10 mg of drug substance was weighed to a 2 mL glass vial and aliquot of 20 μL of each solvent will be added to determine solubility at 50° C. Approximate solubility was determined by visual observation.
# [4] = as above; remark: listed apart in the source
# [5] = X-ray powder diffraction (XRPD)
# Method: XRPD patterns were collected with a PANalytical X'Pert PRO MPD or a PANalytical Empyrean diffractometer using an incident beam of Cu radiation produced using an Optix long, fine-focus source. An elliptically graded multilayer mirror was used to focus Cu Kα X-rays through the specimen and onto the detector. Prior to the analysis, a silicon specimen (NIST SRM 640e or 640f) was analyzed to verify the observed position of the Si 111 peak is consistent with the NIST-certified position. A specimen of the sample was sandwiched between 3-μm-thick films and analyzed in transmission geometry. […]
# XRPD patterns were collected with a PANalytical X'Pert PRO MPD diffractometer using an incident beam of Cu Kα radiation produced using a long, fine-focus source and a nickel filter. […] Prior to the analysis, a silicon specimen (NIST SRM 640e or 640f) was analyzed to verify the observed position of the Si 111 peak is consistent with the NIST-certified position. […]
# XRPD patterns were collected with a PANalytical X'Pert PRO MPD or a PANalytical Empyrean diffractometer using an incident beam of Cu radiation produced using an Optix long, fine-focus source. […] Prior to the analysis, a silicon specimen (NIST SRM 640e or 640f) was analyzed to verify the observed position of the Si 111 peak is consistent with the NIST-certified position. […]
smiles,measurement,setting,value
CCC(=O)[O][Mn][O]C(=O)CC.c1cc2nc(c1)CN[C@H]1CCCC[C@@H]1NCCN[C@H]1CCCC[C@@H]1NC2 [Form 8429-73-01],DSC endotherm onset,[1],endotherm onset of 232 °C
CCC(=O)[O][Mn][O]C(=O)CC.c1cc2nc(c1)CN[C@H]1CCCC[C@@H]1NCCN[C@H]1CCCC[C@@H]1NC2 [Sample 8429-84-01],Result (form),"[2]; 8429-79-01 and 8429-79-02, Form A + E combined and stored over P2O5, 5 days",E + A
CCC(=O)[O][Mn][O]C(=O)CC.c1cc2nc(c1)CN[C@H]1CCCC[C@@H]1NCCN[C@H]1CCCC[C@@H]1NC2 [Sample 8429-97-03],Result (form),"[2]; P2O5, 4 days",E + A
CCC(=O)[O][Mn][O]C(=O)CC.c1cc2nc(c1)CN[C@H]1CCCC[C@@H]1NCCN[C@H]1CCCC[C@@H]1NC2 [drug substance],Solubility,"[3]; 1,4-Dioxane",S > 259.5 mg/mL
same,Solubility,[3]; 2-Propanol,S > 292.5 mg/mL
same,Solubility,[3]; Acetonitrile,S > 315.5 mg/mL
same,Solubility,[3]; Dichloromethane,S > 278.5 mg/mL
same,Solubility,[3]; Ethanol,S > 281.5 mg/mL
same,Solubility,[3]; Methanol,S > 332.0 mg/mL
same,Solubility,[3]; Tetrahydrofuran,S > 319.0 mg/mL
same,Solubility,[3]; Water,S > 337.5 mg/mL
same,Solubility,"[4]; 2-Propanol, 25° C.",S > 285.5 mg/mL
same,Solubility,"[4]; Dichloromethane, 25° C.",S > 297.5 mg/mL
same,Solubility,"[4]; Ethanol, 25° C.",S > 322.5 mg/mL
same,Solubility,"[4]; Heptane, 25° C.",S < 3.7 mg/mL
same,Solubility,"[4]; Heptane, 50° C.",S < 3.7 mg/mL
same,Solubility,"[4]; Methanol, 25° C.",S > 306.0 mg/mL
same,Solubility,"[4]; Tetrahydrofuran, 25° C.",S > 319.0 mg/mL
same,Solubility,"[4]; Water, 25° C.",S > 314.5 mg/mL
CCC(=O)[O][Mn][O]C(=O)CC.c1cc2nc(c1)CN[C@H]1CCCC[C@@H]1NCCN[C@H]1CCCC[C@@H]1NC2 [Sample 8429-73-01],DSC minor endotherm,[1],minor endotherm near 197 °C
same,XRPD Result,[5],Form E + peaks
CCC(=O)[O][Mn][O]C(=O)CC.c1cc2nc(c1)CN[C@H]1CCCC[C@@H]1NCCN[C@H]1CCCC[C@@H]1NC2 [Sample 8516-07-01],Result (form),"[2]; 8429-97-01 Forn E + Form A, vacuum dried, ambient, 2 days",peaks
CCC(=O)[O][Mn][O]C(=O)CC.c1cc2nc(c1)CN[C@H]1CCCC[C@@H]1NCCN[C@H]1CCCC[C@@H]1NC2 [Form 8429-39-01],Observation,"[2]; amorphous material (pale light yellow) after held @ 100° C., 5 min.",3. peach in color
